Key:
Plasma = assay: Anticoagulant activity in human plasma assessed as EC1.5 of activated partial thromboplastin time by coagulometric analysis; assay type: functional
[1] = Permeability across basolateral to apical side in human Caco2 cells; assay type: ADME, cell-based; conditions: Caco-2, read-out: permeability
[2] = Metabolic stability in human liver microsomes assessed as half life; assay type: ADME, Microsome
[3] = Metabolic stability in rat liver microsomes assessed as half life; assay type: ADME, Microsome
[4] = Permeability across apical to basolateral side in human Caco2 cells; assay type: ADME, cell-based; conditions: Caco-2, read-out: permeability
[5] = Half life in Sprague-Dawley rat at 1.13 mg/kg, iv or 2.27 mg/kg, po measured upto 24 hrs by LC-MS/MS analysis; assay type: ADME, organism-based; conditions: in vivo
[6] = Volume of distribution at steady state in Sprague-Dawley rat at 1.13 mg/kg, iv or 2.27 mg/kg, po measured upto 24 hrs by LC-MS/MS analysis; assay type: ADME, organism-based; conditions: in vivo, read-out: Vdss
[7] = AUC in Sprague-Dawley rat at 2.27 mg/kg, po measured upto 24 hrs by LC-MS/MS analysis; assay type: ADME, organism-based; set-up: time < 24 hr, dose 2.27 mg/kg, route oral; conditions: in vivo
[8] = Clearance in Sprague-Dawley rat at 1.13 mg/kg, iv or 2.27 mg/kg, po measured upto 24 hrs by LC-MS/MS analysis; assay type: ADME, organism-based; conditions: in vivo
[9] = Oral bioavailability in Sprague-Dawley rat at 2.27 mg/kg measured upto 24 hrs by LC-MS/MS analysis; assay type: ADME, organism-based; conditions: in vivo
Coagulation factor XI = Coagulation factor XI (Homo sapiens, UniProt P03951); assay: Inhibition of recombinant human activated coagulation factor XI using pyro-Glu-Pro-Arg-pNA as substrate by spectrophotometry
Sequence of Coagulation factor XI (P03951 19-387 limits assumed): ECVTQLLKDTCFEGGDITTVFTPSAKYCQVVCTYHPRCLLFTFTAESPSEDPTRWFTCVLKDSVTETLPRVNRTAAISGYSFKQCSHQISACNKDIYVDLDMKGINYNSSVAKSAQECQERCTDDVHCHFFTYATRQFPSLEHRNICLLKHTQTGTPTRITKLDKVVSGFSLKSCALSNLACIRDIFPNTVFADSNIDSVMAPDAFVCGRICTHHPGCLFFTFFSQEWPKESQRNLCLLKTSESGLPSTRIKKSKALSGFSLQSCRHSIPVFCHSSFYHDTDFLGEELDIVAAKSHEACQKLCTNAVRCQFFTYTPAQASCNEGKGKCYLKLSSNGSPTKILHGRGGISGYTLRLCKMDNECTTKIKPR
Sequence of Coagulation factor XI (P03951 388-625 limits assumed): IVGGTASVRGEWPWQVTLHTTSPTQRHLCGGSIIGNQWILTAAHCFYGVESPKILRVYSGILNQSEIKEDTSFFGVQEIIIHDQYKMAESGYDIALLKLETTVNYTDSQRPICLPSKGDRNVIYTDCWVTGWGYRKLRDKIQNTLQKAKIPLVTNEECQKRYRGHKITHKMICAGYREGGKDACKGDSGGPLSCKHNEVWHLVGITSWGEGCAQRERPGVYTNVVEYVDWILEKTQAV

[10] = Volume of distribution at steady state in Sprague-Dawley rat at 0.50 mg/kg, iv or 1.0 mg/kg, po measured upto 24 hrs by LC-MS/MS analysis; assay type: ADME, organism-based; conditions: in vivo, 0.5 mg/kg, read-out: Vdss
[11] = Protein binding in rat assessed as unbound fraction; assay type: ADME
[12] = AUC in Sprague-Dawley rat at 1.0 mg/kg, po measured upto 24 hrs by LC-MS/MS analysis; assay type: ADME, organism-based; set-up: dose 1 mg/kg, time < 24 hr, route oral; conditions: in vivo
[13] = Oral bioavailability in Sprague-Dawley rat at 1.0 mg/kg measured upto 24 hrs by LC-MS/MS analysis; assay type: ADME, organism-based; conditions: in vivo
[14] = Half life in Sprague-Dawley rat at 0.50 mg/kg, iv or 1.0 mg/kg, po measured upto 24 hrs by LC-MS/MS analysis; assay type: ADME, organism-based; conditions: in vivo
[15] = Clearance in Sprague-Dawley rat at 0.50 mg/kg, iv or 1.0 mg/kg, po measured upto 24 hrs by LC-MS/MS analysis; assay type: ADME, organism-based; conditions: in vivo, 0.5 mg/kg

SMILES	EC1.5 (Plasma)	half-life [2]	Ki (Coagulation factor XI)	also measured
COC(=O)Nc1ccc2c(c1)NC(=O)CCCC[C@H](NC(=O)/C=C/c1cc(Cl)ccc1-n1cnnn1)c1nc-2c[nH]1	0.3 µM	90 min	–	Papp B→A [1]: 6.7 ×10⁻⁶ cm/s; half-life [3]: 76 min; Papp A→B [4]: < 1.5 ×10⁻⁶ cm/s; half-life [5]: 60 min; Vd [6]: 0.3 L/kg; AUC at 24 h [7]: 0.024 µM·h; clearance [8]: 10 mL/min/kg; bioavailability [9]: < 1%
COC(=O)Nc1ccc2c(c1)NCCCCC[C@H](NC(=O)/C=C/c1cc(Cl)ccc1-n1cnnn1)c1nc-2c[nH]1	6.2 µM	6 min	16 nM	–
CCOC(=O)[C@H]1CCCC[C@H](NC(=O)/C=C/c2cc(Cl)ccc2-n2cnnn2)c2nc(c[nH]2)-c2ccc(NC(=O)OC)cc2N1	0.86 µM	7 min	0.22 nM	Vd [10]: 0.2 L/kg; Papp B→A [1]: 13.3 ×10⁻⁶ cm/s; half-life [3]: 34 min; Papp A→B [4]: < 1.5 ×10⁻⁶ cm/s; fraction unbound [11]: < 0.002; AUC at 24 h [12]: 0.478 µM·h; bioavailability [13]: 7%; half-life [14]: 90 min; clearance [15]: 2.8 mL/min/kg
COC(=O)Nc1ccc2c(c1)N[C@@H](CO)CCCC[C@H](NC(=O)/C=C/c1cc(Cl)ccc1-n1cnnn1)c1nc-2c[nH]1	0.54 µM	10 min	0.61 nM	–
COC(=O)c1ccc2c(c1)-c1c[nH]c(n1)[C@@H](NC(=O)/C=C/c1cc(Cl)ccc1-n1cnnn1)C/C=C/CCC(=O)N2	–	6 min	245 nM	–
COC(=O)Nc1ccc2c(c1)NC(=O)CC/C=C/C[C@H](NC(=O)/C=C/c1cc(Cl)ccc1-n1cnnn1)c1nc-2c[nH]1	0.27 µM	–	–	Papp A→B [4]: < 1.5 ×10⁻⁶ cm/s
COC(=O)Nc1ccc2c(c1)N[C@@H](C(=O)N(C)C)CCCC[C@H](NC(=O)/C=C/c1cc(Cl)ccc1-n1cnnn1)c1nc-2c[nH]1	0.36 µM	14 min	0.31 nM	–
COC(=O)Nc1ccc2c(c1)N[C@@H](C(F)F)CCCC[C@H](NC(=O)/C=C/c1cc(Cl)ccc1-n1cnnn1)c1nc-2c[nH]1	2 µM	25 min	1.3 nM	–
COC(=O)Nc1ccc2c(c1)N[C@H](C(F)(F)F)CCCC[C@H](NC(=O)/C=C/c1cc(Cl)ccc1-n1cnnn1)c1nc-2c[nH]1	–	–	370 nM	–
O=C(/C=C/c1cc(Cl)ccc1-n1cnnn1)N[C@H]1C/C=C/CCC(=O)Nc2ccccc2-c2c[nH]c1n2	2.9 µM	3 min	5.1 nM	–
O=C(/C=C/c1cc(Cl)ccc1-n1cnnn1)N[C@H]1C/C=C/CCC(=O)Nc2ccc(F)cc2-c2c[nH]c1n2	2.5 µM	2 min	6 nM	–
O=C(/C=C/c1cc(Cl)ccc1-n1cnnn1)N[C@H]1C/C=C/CCC(=O)Nc2ccc(C(=O)O)cc2-c2c[nH]c1n2	1.7 µM	94 min	3.6 nM	–

From ChEMBL document CHEMBL4610060, “Orally bioavailable amine-linked macrocyclic inhibitors of factor XIa” (Bioorg Med Chem Lett, 2020)
